Measurements taken from patent US20090099346A1 (priority 2003, published 2009).

Experiments:
[1] = Thermal stability study under accelerated storage conditions (HPLC assay, doxorubicinone quantity, total impurities); assay type: physicochemical
Protocol: The type II crystalline epirubicin hydrochloride obtained in Example 1 and type I crystalline epirubicin hydrochloride obtained in reference Example 3 were each kept at a temperature 40° C. for six months, thereby simulating accelerated storage conditions. The thermal stability was investigated and measured by studying the following parameters: (1) assay (HPLC method), (2) doxorubicinone quantity (doxorubicinone, an aglycone of epirubicin, is the major epirubicin degradation product), and (3) total impurities.

[2] = Powder X-ray diffraction of commercial batches after accelerated storage; assay type: physicochemical; details: 3 commercial batches, 6 months of accelerated storage conditions (40° C.)
Protocol: In this example, powder X-ray diffraction spectra of crystalline epirubicin hydrochloride of type I and type II were obtained. Powder X-ray diffraction spectra were measured using a Rigaku Cu Anode X-ray Diffractometer (MiniFlex). The conditions for analysis of the samples was as follows:
FIGS. 16, 18 and 20 illustrate the X-Ray Diffraction spectra of the mentioned above 3 commercial batches, undergone 6 months of Accelerated storage conditions (40° C.).

## COc1cccc2c1C(=O)c1c(O)c3c(c(O)c1C2=O)C[C@@](O)(C(=O)CO)C[C@@H]3OC1CC(N)C(O)C(C)O1.Cl (stereo partly drawn) [epirubicin hydrochloride]
[1]; concluded from the 40° C. storage study, compared with type I
  shelf life: longer than the shelf life of type I crystalline epirubicin hydrochloride
[1]; kept at 40° C. for six months, compared with type I crystalline epirubicin hydrochloride
  thermal stability: much greater thermal stability than type I crystalline epirubicin hydrochloride
[2]
  thermal stability by X-Ray Diffraction spectra: thermally stable
